Assay results published in patent publication US10822325B2, “Human GLUT5 specific inhibitors and methods of treatment” (UNM RAINFOREST INNOVATIONS, priority 2015, dated 2020).
“Also recorded” adds a separate entry of the source.

Legend:
human GLUT4 = molecular target: T1, human GLUT4 (Homo sapiens, UniProt P14672); experiment: Glucose entrance counter-flow transport in GLUT4 proteoliposomes; type: biochemical; conditions: 2 mM compound
T1 construct: Full length DNA was subcloned into pFastBac1 (Life Technologies) vector with a N-terminal hexahistidine tag; hexahistidine (N); made in house; host or cells: Sf21 insect cells (baculovirus, pFastBac1)
T1 sequence (P14672 1-509): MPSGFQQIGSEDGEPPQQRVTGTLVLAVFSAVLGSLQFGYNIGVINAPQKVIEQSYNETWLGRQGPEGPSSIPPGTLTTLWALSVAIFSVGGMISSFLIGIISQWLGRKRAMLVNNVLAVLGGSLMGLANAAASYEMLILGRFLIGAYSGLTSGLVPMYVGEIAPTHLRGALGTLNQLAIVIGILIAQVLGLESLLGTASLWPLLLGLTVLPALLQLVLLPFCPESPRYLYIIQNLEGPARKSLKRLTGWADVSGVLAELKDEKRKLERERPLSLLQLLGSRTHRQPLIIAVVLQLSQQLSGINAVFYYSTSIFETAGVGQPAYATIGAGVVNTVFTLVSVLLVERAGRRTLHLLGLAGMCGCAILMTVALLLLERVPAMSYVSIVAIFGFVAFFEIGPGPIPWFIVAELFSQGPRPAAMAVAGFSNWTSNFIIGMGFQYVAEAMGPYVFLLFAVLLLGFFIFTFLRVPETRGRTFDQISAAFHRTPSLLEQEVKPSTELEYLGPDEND
Method: (§1) cDNAs of GLUT1, 3, 4 and 5 were purchased from Open Biosystems (GE Healthcare). cDNAs of GLUT2 was a gift from Prof. Graeme Bell at University of Chicago. Full length DNA was subcloned into pFastBac1 (Life Technologies) vector with a N-terminal hexahistidine tag. Bacmids were generated in DH10Bac E. coli cells (Life Technologies). Baculoviruses were produced using Cellfectin II Reagent and amplified in Sf21 insect cells (Life Technologies). Cells were maintained at 26° C., and P1 (10^6 pfu/mL) was collected from infected cells after 72 hours. SF21 cells were propagated in HyClone SFX-Insect media (GE Healthcare), supplemented with 5% fetal bovine serum (Biowest), 4.8 mM glutamine, antibiotics (100 units/mL Penicillin G and 100 μg/mL streptomycin sulfate) and amphotericin B (2.5 μg/mL). […]
(§2) For the entrance counterflow transport in proteoliposomes, the assay was started by the addition of 5 μL proteoliposomes solution (OD600 nm ˜30) to 200 μL, assay solution, containing 10 μM ^14C-radiolabeled glucose (for GLUT1 wild-type or F379H mutant and GLUT2-4) or fructose (for GLUT5 wild-type or H387F mutant and GLUT2) (Moravek Biochemicals) in 100 mM KPi buffer at pH 7.5. After one minute (or different specified time points when the time-dependent counter-flow transport activity was measured), the transport was stopped with ice-chilled quench buffer [0.1 M KPi (pH 5.5) and 0.1 M lithium chloride]. […]

GLUT5H387F = molecular target: T2, GLUT5H387F (Homo sapiens, UniProt P22732, H387F); experiment: Fructose entrance counter-flow transport in GLUT5H387F mutant proteoliposomes; type: biochemical; conditions: 2 mM compound
T2 construct: Full length DNA was subcloned into pFastBac1 (Life Technologies) vector with a N-terminal hexahistidine tag; hexahistidine (N); made in house; host or cells: Sf21 insect cells (baculovirus, pFastBac1)
T2 sequence (P22732 1-501 H387F): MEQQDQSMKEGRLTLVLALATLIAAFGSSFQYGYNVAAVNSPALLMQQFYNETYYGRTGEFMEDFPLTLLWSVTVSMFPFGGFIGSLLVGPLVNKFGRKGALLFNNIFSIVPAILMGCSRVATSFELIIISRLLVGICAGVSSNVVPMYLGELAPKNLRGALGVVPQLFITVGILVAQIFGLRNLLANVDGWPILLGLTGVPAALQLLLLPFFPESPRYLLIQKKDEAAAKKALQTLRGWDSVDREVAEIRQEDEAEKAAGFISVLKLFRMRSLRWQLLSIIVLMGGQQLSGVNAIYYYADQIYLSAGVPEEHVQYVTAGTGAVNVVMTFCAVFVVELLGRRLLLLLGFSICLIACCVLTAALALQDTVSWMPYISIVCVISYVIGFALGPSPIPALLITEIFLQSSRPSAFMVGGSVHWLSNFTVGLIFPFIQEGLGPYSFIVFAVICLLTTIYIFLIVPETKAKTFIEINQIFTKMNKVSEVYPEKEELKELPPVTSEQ
Method: as §1, §2

With `CS(=O)(=O)c1ccc(Nc2ccc3c(c2)OCO3)c([N+](=O)[O-])c1` [MSNBA, N-[4-(methylsulfonyl)-2-nitrophenyl]-1,3-benzodioxol-5-amine] the “effect on GLUT4 glucose transport” value (human GLUT4) was “did not affect; also recorded: did not influence”, the “activity retained by GLUT5H387F” value (GLUT5H387F) was 93% and the “effect on GLUT5H387F fructose transport” value (GLUT5H387F) was “largely unaffected; also recorded: almost unsusceptible”.
